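Following 48 hours of exposure in 96-well plates, responses at five concentrations were used to interpolate endpoints linearly. TGI marks complete inhibition of growth.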
Tests used:
Experiment in all cases: DTP human tumour cell line panel, 48 h
786-0 renal = system: 786-0 renal
A549 NSCLC = system: A549 NSCLC
ACHN renal = system: ACHN renal
CAKI-1 renal = system: CAKI-1 renal
CCRF-CEM leukemia = system: CCRF-CEM leukemia
COLO 205 colon = system: COLO 205 colon
DU-145 prostate = system: DU-145 prostate
EKVX NSCLC = system: EKVX NSCLC
HCC-2998 colon = system: HCC-2998 colon
HCT-116 colon = system: HCT-116 colon
HCT-15 colon = system: HCT-15 colon
HL-60(TB) leukemia = system: HL-60(TB) leukemia
HOP-62 NSCLC = system: HOP-62 NSCLC
HOP-92 NSCLC = system: HOP-92 NSCLC
HS 578T breast = system: HS 578T breast
HT29 colon = system: HT29 colon
IGROV1 ovarian = system: IGROV1 ovarian
K-562 leukemia = system: K-562 leukemia
KM12 colon = system: KM12 colon
LOX IMVI melanoma = system: LOX IMVI melanoma
M14 melanoma = system: M14 melanoma
MALME-3M melanoma = system: MALME-3M melanoma
MCF7 breast = system: MCF7 breast
MDA-MB-231 breast = system: MDA-MB-231 breast
MDA-MB-435 = system: MDA-MB-435
MDA-N = system: MDA-N
MOLT-4 leukemia = system: MOLT-4 leukemia
NCI-H226 lung = system: NCI-H226 lung
NCI-H23 lung = system: NCI-H23 lung
NCI-H460 lung = system: NCI-H460 lung
NCI-H522 lung = system: NCI-H522 lung
NCI/ADR-RES ovarian = system: NCI/ADR-RES ovarian
OVCAR-3 ovarian = system: OVCAR-3 ovarian
OVCAR-5 ovarian = system: OVCAR-5 ovarian
OVCAR-8 ovarian = system: OVCAR-8 ovarian
PC-3 prostate = system: PC-3 prostate
RPMI-8226 leukemia = system: RPMI-8226 leukemia
RXF 393 renal = system: RXF 393 renal
SF-268 CNS = system: SF-268 CNS
SF-295 CNS = system: SF-295 CNS
SF-539 CNS = system: SF-539 CNS
SK-MEL-2 melanoma = system: SK-MEL-2 melanoma
SK-MEL-28 melanoma = system: SK-MEL-28 melanoma
SK-OV-3 ovarian = system: SK-OV-3 ovarian
SN12C renal = system: SN12C renal
SNB-19 CNS = system: SNB-19 CNS
SNB-75 CNS = system: SNB-75 CNS
SR leukemia = system: SR leukemia
SW-620 colon = system: SW-620 colon
T-47D breast = system: T-47D breast
TK-10 renal = system: TK-10 renal
U251 CNS = system: U251 CNS
UACC-257 melanoma = system: UACC-257 melanoma
UACC-62 melanoma = system: UACC-62 melanoma
UO-31 renal = system: UO-31 renal
A498 renal = system: A498 renal
BT-549 breast = system: BT-549 breast
OVCAR-4 ovarian = system: OVCAR-4 ovarian
SK-MEL-5 melanoma = system: SK-MEL-5 melanoma

In the case of `c1cc2ccc3cc4ncccc4c4ccc(c1)c2c34`, the TGI (786-0 renal) is reported as > 100 µM, the TGI (A549 NSCLC) is reported as > 100 µM and the TGI (ACHN renal) is reported as 31.6 µM. The TGI (CAKI-1 renal) was > 100 µM, the TGI (CCRF-CEM leukemia) was > 100 µM and the TGI (COLO 205 colon) was > 100 µM. The TGI (DU-145 prostate) was > 100 µM, the TGI (EKVX NSCLC) was > 100 µM and the TGI (HCC-2998 colon) was > 100 µM. For the same compound, the TGI (HCT-116 colon) was > 100 µM, the TGI (HCT-15 colon) was > 100 µM and the TGI (HL-60(TB) leukemia) was > 100 µM. For the same compound, the TGI (HOP-62 NSCLC) was > 100 µM, the TGI (HOP-92 NSCLC) was > 100 µM and the TGI (HS 578T breast) was > 100 µM. The TGI (HT29 colon) was > 100 µM, the TGI (IGROV1 ovarian) was 25 µM and the TGI (K-562 leukemia) was > 100 µM. For the same compound, the TGI (KM12 colon) was > 100 µM, the TGI (LOX IMVI melanoma) was > 100 µM and the TGI (M14 melanoma) was > 100 µM. The TGI (MALME-3M melanoma) was > 100 µM, the TGI (MCF7 breast) was > 100 µM and the TGI (MDA-MB-231 breast) was > 100 µM. For the same compound, the TGI (MDA-MB-435) was > 100 µM, the TGI (MDA-N) was > 100 µM and the TGI (MOLT-4 leukemia) was > 100 µM. For the same compound, the TGI (NCI-H226 lung) was > 100 µM, the TGI (NCI-H23 lung) was > 100 µM and the TGI (NCI-H460 lung) was > 100 µM. For the same compound, the TGI (NCI-H522 lung) was > 100 µM, the TGI (NCI/ADR-RES ovarian) was > 100 µM and the TGI (OVCAR-3 ovarian) was > 100 µM. For the same compound, the TGI (OVCAR-5 ovarian) was > 100 µM, the TGI (OVCAR-8 ovarian) was 67.4 µM and the TGI (PC-3 prostate) was > 100 µM. For the same compound, the TGI (RPMI-8226 leukemia) was 88.3 µM, the TGI (RXF 393 renal) was > 100 µM and the TGI (SF-268 CNS) was > 100 µM. For the same compound, the TGI (SF-295 CNS) was > 100 µM, the TGI (SF-539 CNS) was > 100 µM and the TGI (SK-MEL-2 melanoma) was 77 µM. The TGI (SK-MEL-28 melanoma) was > 100 µM, the TGI (SK-OV-3 ovarian) was > 100 µM and the TGI (SN12C renal) was > 100 µM. The TGI (SNB-19 CNS) was > 100 µM, the TGI (SNB-75 CNS) was > 100 µM and the TGI (SR leukemia) was > 100 µM. The TGI (SW-620 colon) was > 100 µM, the TGI (T-47D breast) was > 100 µM and the TGI (TK-10 renal) was > 100 µM. For the same compound, the TGI (U251 CNS) was > 100 µM, the TGI (UACC-257 melanoma) was > 100 µM and the TGI (UACC-62 melanoma) was > 100 µM. For the same compound, the TGI (UO-31 renal) was 40.2 µM.
`CC(C)(C)OC(=O)N1CC(O)O[C@H](c2ccccc2)[C@@H]1c1ccccc1` (stereo partly drawn) gave a TGI (786-0 renal) of 62.1 µM, a TGI (A498 renal) of 40.7 µM and a TGI (A549 NSCLC) of 39.5 µM. For the same compound, the TGI (BT-549 breast) was 36.4 µM, the TGI (CAKI-1 renal) was > 100 µM and the TGI (CCRF-CEM leukemia) was 48.4 µM. It also gave a TGI (COLO 205 colon) of 97.4 µM, a TGI (DU-145 prostate) of 53.8 µM and a TGI (EKVX NSCLC) of 40.9 µM. For the same compound, the TGI (HCT-116 colon) was > 100 µM, the TGI (HCT-15 colon) was 33.9 µM and the TGI (HOP-62 NSCLC) was 31.2 µM. For the same compound, the TGI (HOP-92 NSCLC) was 36.1 µM, the TGI (HS 578T breast) was > 100 µM and the TGI (HT29 colon) was 39.3 µM. The TGI (IGROV1 ovarian) was 40.4 µM, the TGI (K-562 leukemia) was > 100 µM and the TGI (KM12 colon) was 42 µM. The TGI (LOX IMVI melanoma) was > 100 µM, the TGI (M14 melanoma) was 30.2 µM and the TGI (MALME-3M melanoma) was 43.2 µM. For the same compound, the TGI (MDA-MB-231 breast) was 67.6 µM, the TGI (MDA-MB-435) was 32.2 µM and the TGI (MDA-N) was 59.5 µM. For the same compound, the TGI (MOLT-4 leukemia) was 97.5 µM, the TGI (NCI-H226 lung) was 45.7 µM and the TGI (NCI-H23 lung) was 29.5 µM. The TGI (NCI-H522 lung) was 45.6 µM, the TGI (NCI/ADR-RES ovarian) was > 100 µM and the TGI (OVCAR-3 ovarian) was 30.2 µM. For the same compound, the TGI (OVCAR-4 ovarian) was 36.2 µM, the TGI (OVCAR-5 ovarian) was 32.3 µM and the TGI (OVCAR-8 ovarian) was > 100 µM. For the same compound, the TGI (PC-3 prostate) was 27.8 µM, the TGI (RPMI-8226 leukemia) was > 100 µM and the TGI (RXF 393 renal) was 30 µM. The TGI (SF-268 CNS) was 77.6 µM, the TGI (SF-295 CNS) was 30.1 µM and the TGI (SK-MEL-2 melanoma) was 28.4 µM. The TGI (SK-MEL-28 melanoma) was 35.2 µM, the TGI (SK-MEL-5 melanoma) was > 100 µM and the TGI (SK-OV-3 ovarian) was 36.6 µM. For the same compound, the TGI (SN12C renal) was > 100 µM, the TGI (SNB-19 CNS) was 29.1 µM and the TGI (SNB-75 CNS) was 70.2 µM. For the same compound, the TGI (SR leukemia) was 62.8 µM, the TGI (SW-620 colon) was 32.8 µM and the TGI (T-47D breast) was > 100 µM. For the same compound, the TGI (TK-10 renal) was 33.1 µM, the TGI (U251 CNS) was 33.4 µM and the TGI (UACC-257 melanoma) was 35.3 µM. For the same compound, the TGI (UACC-62 melanoma) was 28.1 µM and the TGI (UO-31 renal) was 31.4 µM.

Source: PubChem BioAssay (NCI)
